What all share (format): cell-based
In assay [1] the test system is human hepatocellular carcinoma cell line SNU398. The experiment in a line: Caspase cascade activation (EC50), SNU398. The note with it: Homo sapiens, SNU-398; SNU398 cells; caspase cascade activation; read-out: caspase potency (EC50) SNU398. A digest of the protocol:
(§1)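 Test compound (0.016–10 μM final) is incubated with cells for 48 h at 37 °C. Caspase-3-like activity is measured by 3 h room-temperature cleavage of DEVD-R110 in PIPES pH 7.2 lysis buffer, with EC50 from sigmoidal fitting of background-corrected RFU relative to control.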

Assay [2] relates to human cancer cell line H1299. The experiment in a line: Caspase cascade activation (EC50), H1299. The following applies: NCI-H1299, H1299 cells, read-out: caspase potency (EC50) H1299. Here is the method: (§2) Human breast cancer cell lines T-47D, human hepatocellular carcinoma cell line SNU398, human colon carcinoma cell line HCT116, human cancer cell line H1299, human Burkitt's lymphoma cell line Namalwa, human lymphoma cell line Raji, and human B cell lymphoblastoid cell line Ramos were grown according to media component mixtures designated by American Type Culture Collection+10% FCS (Invitrogen Corporation), in a 5% CO2-95% humidity incubator at 37° C. T-47D and H1299 cells were maintained at a cell density between 50 and 80% confluency at a cell density of 0.1 to 0.6×10^6 cells/mL. Cells were harvested at 600×g and resuspended at 0.65×10^6 cells/mL into appropriate media+10% FCS. An aliquot of 22.5 μL of cells was added to a well of a 384-well microtiter plate containing 2.5 μL of a 10% DMSO in RPMI-1640 media solution containing 0.16 to 100 μM of 3-(2-chlorophenyl)-6-(3,4-methylenedioxyphenyl)-7H-[1,2,4]triazolo[3,4-b][1,3,4]thiadiazine or other test compound (0.016 to 10 μM final). An aliquot of 22.5 μL of cells was added to a well of a 384-well microtiter plate containing 2.5 μL of a 10% DMSO in RPMI-1640 media solution without test compound as the control sample. The samples were mixed by agitation and then incubated at 37° C. for 48 h in a 5% CO2-95% humidity incubator. After incubation, the samples were removed from the incubator and 25 μL of a solution containing 14 μM of N—(Ac-DEVD)-N′-ethoxycarbonyl-R110 (SEQ ID No.:1) fluorogenic substrate (Cytovia, Inc.; WO99/18856), 20% sucrose (Sigma), 20 mM DTT (Sigma), 200 mM NaCl (Sigma), 40 mM Na PIPES buffer pH 7.2 (Sigma), and 500 μg/mL lysolecithin (Calbiochem) was added. The samples were mixed by agitation and incubated at room temperature. Using a fluorescent plate reader (Model SPECTRAfluor Plus, Tecan), an initial reading (T=0) was made approximately 1-2 min after addition of the substrate solution, employing excitation at 485 nm and emission at 530 nm, to determine the background fluorescence of the control sample. After the 3 h incubation, the samples were read for fluorescence as above (T=3 h). Calculation: The Relative Fluorescence Unit values (RFU) were used to calculate the sample readings as follows: RFU(T=3H)−Control RFU(T=0)=Net RFU(T=3h) The activity of caspase cascade activation was determined by the ratio of the net RFU value for 3-(2-chlorophenyl)-6-(3,4-methylenedioxyphenyl)-7H-[1,2,4]triazolo[3,4-b][1,3,4]thiadiazine (Example P) or other test compound to that of control samples. The EC50 (nM) was determined by a sigmoidal dose-response calculation (Prism 3.0, GraphPad Software Inc.).

The test system of assay [3] is human colon carcinoma cell line HCT116. The experiment in a line: Caspase cascade activation (EC50), HCT116. The following applies: Homo sapiens, HCT-116; HCT116 cells; caspase cascade activation; read-out: caspase potency (EC50) HCT116. A digest of the protocol: as §1
Assay [4] relates to human breast cancer cell line T-47D. The experiment in a line: Caspase cascade activation (EC50), T-47D. The note with it: Homo sapiens; T47D cells; caspase cascade activation; read-out: caspase potency (EC50) T47D. The method, boiled down:
as §1

Assay [5] deals with human B cell lymphoblastoid cell line Ramos. The experiment in a line: Caspase cascade activation (EC50), Ramos. The note with it: Homo sapiens, RAMOS cells, read-out: caspase potency (EC50) RAMOS. Here is the method:
as §2

Assay [6] concerns human lymphoma cell line Raji. The experiment in a line: Caspase cascade activation (EC50), Raji. The note with it: Homo sapiens, RAJI cells, read-out: caspase potency (EC50) RAJI. Here is the method:
as §2

The test system of assay [7] is human Burkitt's lymphoma cell line Namalwa. The experiment in a line: Caspase cascade activation (EC50), Namalwa. The following applies: Homo sapiens, Burkitts lymphoma cell; Namalwa cells; caspase cascade activation; read-out: caspase potency (EC50) Namalwa. A digest of the protocol: as §1

Data on 19 compounds can be found in patent US20080045514A1 (Cytovia, Inc., priority 2006, published 2008).

Where only a bound is given, the exact number is not on record here.

In the case of `CCOc1ccc(C2=Nn3c(nnc3-c3cccc(OC)c3)SC2)cc1` [Z, 3-(3-Methoxyphenyl)-6-(4-ethoxyphenyl)-7H-[1,2,4]triazolo[3,4-b][1,3,4]thiadiazine], the half-maximal effective concentration (EC50) in assay [1] was 331 nM; in assay [2], 2330 nM; in assay [3], 693 nM; in assay [4], 2810 nM.
On to `COc1cccc(-c2nnc3n2N=C(c2ccc4ccccc4c2)CS3)c1` [Example B1, 3-(3-Methoxyphenyl)-6-(2-naphthyl)-7H-[1,2,4]triazolo[3,4-b][1,3,4]thiadiazine], for which the EC50 in assay [1] was found to be 930 nM; in assay [2], 1710 nM; in assay [3], 1310 nM; in assay [4], 1420 nM.
Take `COc1cc(-c2nnc3n2N=C(c2ccccc2)CS3)cc(OC)c1OC` [Example S1, 3-(3,4,5-Trimethoxyphenyl)-6-phenyl-7H-[1,2,4]triazolo[3,4-b][1,3,4]thiadiazine]: the 50% effective concentration (EC50) is 316 nM in assay [5]; 619 nM in assay [6]; 313 nM in assay [7]; 226 nM in assay [1]; 1260 nM in assay [2]; 284 nM in assay [3]. The EC50 in assay [4] is 323 nM.
With `Clc1ccc(-c2nnc3n2N=C(c2ccccc2)CS3)c(Cl)c1` [Example J1, 3-(2,4-Dichlorophenyl)-6-phenyl-7H-[1,2,4]triazolo[3,4-b][1,3,4]thiadiazine], the half-maximal effective concentration (EC50) came to 2590 nM in assay [2] and 2870 nM in assay [4].
In the same order, the values of `Cc1cccc(-c2nnc3n2N=C(c2ccc4ccccc4c2)CS3)c1` [U, 3-(3-Methylphenyl)-6-(2-naphthyl)-7H-[1,2,4]triazolo[3,4-b][1,3,4]thiadiazine] are 3570 nM and 5540 nM.
On to `CCOc1ccc(-c2nnc3n2N=C(c2ccc4c(c2)OCO4)CS3)cc1` [Example H2, 3-(4-Ethoxyphenyl)-6-(3,4-methylenedioxyphenyl)-7H-[1,2,4]triazolo[3,4-b][1,3,4]thiadiazine], for which the half-maximal effective concentration (EC50) in assay [5] is 542 nM; in assay [6], greater than 1000 nM; in assay [7] it was greater than 1000 nM; in assay [1], greater than 1000 nM; in assay [2], greater than 1000 nM; in assay [3], greater than 1000 nM. The half-maximal effective concentration (EC50) in assay [4] is greater than 1000 nM.
Consider `COc1cccc(-c2nnc3n2N=C(c2ccc4c(c2)OCO4)CS3)c1` [Example A1, 3-(3-Methoxyphenyl)-6-(3,4-methylenedioxyphenyl)-7H-[1,2,4]triazolo[3,4-b][1,3,4]thiadiazine], for which the EC50 in assay [5] came out at 447 nM; in assay [6] it was 507 nM; in assay [7], 426 nM; in assay [1], 390 nM; in assay [2] it was 2490 nM; in assay [3], 546 nM. The 50% effective concentration (EC50) in assay [4] amounted to 500 nM.
As to `COc1ccc(C2=Nn3c(nnc3-c3ccc(Cl)cc3)SC2)cc1OC` [E, 3-(4-Chlorophenyl)-6-(3,4-dimethoxyphenyl)-7H-[1,2,4]triazolo[3,4-b][1,3,4]thiadiazine], the concentration giving a half-maximal response (EC50) in assay [2] stood at 2100 nM; in assay [4], 1880 nM.
As to `COc1ccc(C2=Nn3c(nnc3-c3ccc(C)cc3)SC2)cc1OC` [A, 3-(4-Methylphenyl)-6-(3,4-dimethoxyphenyl)-7H-[1,2,4]triazolo[3,4-b][1,3,4]thiadiazine], the EC50 amounted to 2730 nM in assay [2] and 2420 nM in assay [4].
Turning to `CCOc1ccc(C2=Nn3c(nnc3-c3ccc(Cl)cc3Cl)SC2)cc1` [Example H1, 3-(2,4-Dichlorophenyl)-6-(4-ethoxyphenyl)-7H-[1,2,4]triazolo[3,4-b][1,3,4]thiadiazine], the EC50 in assay [1] is 41 nM; in assay [2] it was 2010 nM; in assay [3], 161 nM; in assay [4] it was 553 nM.
On to `CCOc1ccc(C2=Nn3c(nnc3-c3ccccc3Cl)SC2)cc1` [O, 3-(2-Chlorophenyl)-6-(4-ethoxyphenyl)-7H-[1,2,4]triazolo[3,4-b][1,3,4]thiadiazine], for which the EC50 is 129 nM in assay [1], 1000 nM in assay [2], 279 nM in assay [3] and 1340 nM in assay [4].
As for `Clc1ccccc1-c1nnc2n1N=C(c1ccc(Br)cc1)CS2` [Q, 3-(2-Chlorophenyl)-6-(4-bromophenyl)-7H-[1,2,4]triazolo[3,4-b][1,3,4]thiadiazine], the EC50 is 5140 nM in assay [2] and 5350 nM in assay [4].
Turning to `COc1ccc(-c2nnc3n2N=C(c2cc(OC)ccc2OC)CS3)cc1` [H, 3-(4-Methoxyphenyl)-6-(2,5-dimethoxyphenyl)-7H-[1,2,4]triazolo[3,4-b][1,3,4]thiadiazine], the EC50 was 1270 nM in assay [5]; 2330 nM in assay [6]; 1180 nM in assay [7]; 1230 nM in assay [1]; 2420 nM in assay [2]; greater than 10000 nM in assay [3]. Further, the EC50 in assay [4] was found to be 2440 nM.
For the compound `CCOc1ccc(C2=Nn3c(nnc3-c3cc(OC)c(OC)c(OC)c3)SC2)cc1` [Example T1, 3-(3,4,5-Trimethoxyphenyl)-6-(4-ethoxyphenyl)-7H-[1,2,4]triazolo[3,4-b][1,3,4]thiadiazine], the half-maximal effective concentration (EC50) in assay [5] was 498 nM; in assay [6], 656 nM; in assay [7], 510 nM; in assay [1] it was 519 nM; in assay [2], 2580 nM; in assay [3], greater than 10000 nM. Besides, in assay [4], the EC50 is 2580 nM.
Turning to `CCc1nnc2n1N=C(c1ccc(OC)cc1)CS2` [Example J2, 3-Ethyl-6-(4-methoxyphenyl)-7H-[1,2,4]triazolo[3,4-b][1,3,4]thiadiazine], the EC50 in assay [5] is 5420 nM; in assay [6] it was 5560 nM; in assay [7], greater than 10000 nM; in assay [1], 5080 nM; in assay [3] it was greater than 10000 nM; in assay [4] it was 5630 nM.
On to `CCOc1ccc(C2=Nn3c(nnc3-c3ccc(OC)cc3)SC2)cc1` [I, 3-(4-Methoxyphenyl)-6-(4-ethoxyphenyl)-7H-[1,2,4]triazolo[3,4-b][1,3,4]thiadiazine], for which the EC50 is 1010 nM in assay [1], 1820 nM in assay [2], 1580 nM in assay [3] and 2490 nM in assay [4].
Regarding `CCOc1ccc(C2=Nn3c(nnc3-c3ccccc3OC)SC2)cc1` [Example B2, 3-(2-Methoxyphenyl)-6-(4-ethoxyphenyl)-7H-[1,2,4]triazolo[3,4-b][1,3,4]thiadiazine], the 50% effective concentration (EC50) was 106 nM in assay [7]; 30 nM in assay [1]; 106 nM in assay [2]; 40 nM in assay [3]; 175 nM in assay [4].
On to `CCOc1cccc(-c2nnc3n2N=C(c2ccc(OC)cc2)CS3)c1` [Example D1, 3-(3-Ethoxyphenyl)-6-(4-methoxyphenyl)-7H-[1,2,4]triazolo[3,4-b][1,3,4]thiadiazine], for which the EC50 is 778 nM in assay [1], 2710 nM in assay [2], 1500 nM in assay [3] and 2300 nM in assay [4].
With `CCOc1ccc(-c2nnc3n2N=C(c2ccc(O)c(O)c2)CS3)cc1` [Example F1, 3-(4-Ethoxyphenyl)-6-(3,4-dihydroxyphenyl)-7H-[1,2,4]triazolo[3,4-b][1,3,4]thiadiazine], the results for the concentration giving a half-maximal response (EC50) in assay [2] and in assay [4] were 2640 nM and 2580 nM, respectively.

One may read the EC50 as the concentration that produces a half-maximal response.
